Source: ChEMBL document CHEMBL1201862, “PubChem BioAssay data set” (2004)
“And” between values parts separate entries of the source, which are not always exact repeats. Equal values may be shown once. The source made the active and inactive calls.

Legend:
[1] = molecular target: Protein disulfide-isomerase (Homo sapiens, UniProt P07237); assay: PDI inhibitors, insulin aggregation turbidity, dose response, biochemical, absorbance, cherry-picked samples (AID 602350); type: functional
[2] = molecular target: Glycogen synthase kinase-3 alpha (Homo sapiens, UniProt P49840); assay: Inhibition of Human GSK-3 alpha Activity Measured in Biochemical System Using Microfluidics - 2063-06_Inhibitor_Dose_DryPowder_Activity_Set2. [Related pubchem assays (depositor defined):AID2709]
[3] = molecular target: Glycogen synthase kinase-3 beta (Homo sapiens, UniProt P49841); assay: Inhibition of Human GSK-3 beta Activity Measured in Biochemical System Using Microfluidics - 2063-05_Inhibitor_Dose_DryPowder_Activity_Set2. [Related pubchem assays (depositor defined):AID2709]
[4] = molecular target: Cyclin-dependent kinase 5/CDK5 activator 1 (Homo sapiens, UniProt Q00535); assay: CDK5-p25 kinase inhibitors, specificity check, dose response, selectivity assay for GSK-3 alpha inhibitor project, biochemical, microfluidic mobility shift, dry powder (AID 588430)
[5] = molecular target: T1, Heat shock factor protein 1 (Mus musculus, UniProt P38532); assay: HSF1 potentiators in luciferase reporter cells, confirmation, cell-based, NIH3T3, luminescence, dose retest (AID 435004); type: functional;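 further: stress induced by proteasome inhibitor MG132 added 30 min after compound; luciferase reporter driven by HSF1 response element in NIH3T3 cells; actives raise luminescence as potentiators of the MG132 stress response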
T1 sequence (P38532 whole entry): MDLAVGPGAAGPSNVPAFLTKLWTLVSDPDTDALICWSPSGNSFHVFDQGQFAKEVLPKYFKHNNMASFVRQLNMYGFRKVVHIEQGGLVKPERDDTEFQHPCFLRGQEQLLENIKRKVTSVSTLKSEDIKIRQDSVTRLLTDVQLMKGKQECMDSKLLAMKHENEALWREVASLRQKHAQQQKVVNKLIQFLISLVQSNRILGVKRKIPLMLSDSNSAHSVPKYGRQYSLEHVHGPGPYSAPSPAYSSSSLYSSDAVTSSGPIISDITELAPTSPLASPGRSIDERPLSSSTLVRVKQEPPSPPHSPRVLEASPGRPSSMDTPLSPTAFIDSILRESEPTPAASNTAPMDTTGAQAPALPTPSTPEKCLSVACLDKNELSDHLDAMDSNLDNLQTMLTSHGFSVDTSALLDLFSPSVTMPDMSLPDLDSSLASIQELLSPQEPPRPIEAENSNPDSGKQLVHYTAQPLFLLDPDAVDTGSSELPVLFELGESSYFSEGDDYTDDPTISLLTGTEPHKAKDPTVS

[6] = molecular target: Botulinum neurotoxin type A (Clostridium botulinum (strain Hall / ATCC 3502 / NCTC 13319 / Type A), UniProt P0DPI1); assay: High-throughput multiplex microsphere dose response for inhibitors of toxin protease, specifically Botulinum neurotoxin light chain A protease, compounds from Cherry Pick 01.; type: functional; conditions: read-out: EC50_MICROM
[7] = molecular target: T2, Apoptotic protease-activating factor 1 (Homo sapiens, UniProt O14727); assay: SAR analysis of small molecule inhibitors of Apaf-1 in a Fluorescent assay.; type: functional; conditions: read-out: IC50_Mean
T2 sequence (O14727 whole entry): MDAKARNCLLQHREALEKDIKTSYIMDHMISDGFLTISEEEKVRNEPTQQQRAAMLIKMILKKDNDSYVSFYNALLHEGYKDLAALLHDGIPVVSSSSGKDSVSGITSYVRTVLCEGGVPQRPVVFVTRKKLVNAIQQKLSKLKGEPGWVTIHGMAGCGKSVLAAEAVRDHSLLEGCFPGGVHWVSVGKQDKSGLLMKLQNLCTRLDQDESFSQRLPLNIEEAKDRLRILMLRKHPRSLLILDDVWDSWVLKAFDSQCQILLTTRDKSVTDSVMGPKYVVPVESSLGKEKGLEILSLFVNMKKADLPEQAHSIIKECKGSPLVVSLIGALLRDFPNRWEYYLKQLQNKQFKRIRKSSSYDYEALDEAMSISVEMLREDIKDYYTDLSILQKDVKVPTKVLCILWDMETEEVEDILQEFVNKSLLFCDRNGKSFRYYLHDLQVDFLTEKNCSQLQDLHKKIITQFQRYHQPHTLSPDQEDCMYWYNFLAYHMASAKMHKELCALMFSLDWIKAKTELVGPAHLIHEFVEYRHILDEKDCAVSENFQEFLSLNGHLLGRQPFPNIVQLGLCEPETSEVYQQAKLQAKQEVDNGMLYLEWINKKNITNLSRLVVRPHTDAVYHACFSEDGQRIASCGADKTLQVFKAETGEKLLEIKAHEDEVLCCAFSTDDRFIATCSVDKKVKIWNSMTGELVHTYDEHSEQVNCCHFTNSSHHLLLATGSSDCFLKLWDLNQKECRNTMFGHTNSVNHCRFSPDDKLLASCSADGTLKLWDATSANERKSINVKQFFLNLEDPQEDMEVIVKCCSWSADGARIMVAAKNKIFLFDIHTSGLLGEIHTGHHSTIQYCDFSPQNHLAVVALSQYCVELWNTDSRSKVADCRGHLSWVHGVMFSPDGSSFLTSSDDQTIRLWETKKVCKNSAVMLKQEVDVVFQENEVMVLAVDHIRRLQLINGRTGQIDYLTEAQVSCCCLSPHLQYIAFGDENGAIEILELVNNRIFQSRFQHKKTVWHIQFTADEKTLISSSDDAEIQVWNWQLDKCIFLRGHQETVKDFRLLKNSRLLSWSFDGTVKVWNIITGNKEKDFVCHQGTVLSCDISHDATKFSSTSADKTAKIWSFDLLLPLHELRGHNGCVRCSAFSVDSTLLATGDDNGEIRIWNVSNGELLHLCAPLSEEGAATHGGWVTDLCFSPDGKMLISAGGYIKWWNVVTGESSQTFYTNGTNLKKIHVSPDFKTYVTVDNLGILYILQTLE

[8] = tested on: Streptococcus sp. 'group A'; assay: growth inhibition of control SK(-) GAS strain, dose response, counter-screen for streptokinase expression inhibitor project, luminescence, kanamycin, BacTiterGlo, confirmation (AID 1900); type: functional, organism-based
Streptokinase A = molecular target: T3, Streptokinase A (Streptococcus pyogenes serotype M1, UniProt P10520); assay: S. pyogenes streptokinase expression inhibitors, potency, dose response, plasminogen activation absorbance, OD405 (AID 1914); type: functional, Streptococcus pyogenes M1 GAS;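 further: secreted streptokinase activity via plasminogen activation per viability signal from cell pellet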
T3 sequence (P10520 whole entry): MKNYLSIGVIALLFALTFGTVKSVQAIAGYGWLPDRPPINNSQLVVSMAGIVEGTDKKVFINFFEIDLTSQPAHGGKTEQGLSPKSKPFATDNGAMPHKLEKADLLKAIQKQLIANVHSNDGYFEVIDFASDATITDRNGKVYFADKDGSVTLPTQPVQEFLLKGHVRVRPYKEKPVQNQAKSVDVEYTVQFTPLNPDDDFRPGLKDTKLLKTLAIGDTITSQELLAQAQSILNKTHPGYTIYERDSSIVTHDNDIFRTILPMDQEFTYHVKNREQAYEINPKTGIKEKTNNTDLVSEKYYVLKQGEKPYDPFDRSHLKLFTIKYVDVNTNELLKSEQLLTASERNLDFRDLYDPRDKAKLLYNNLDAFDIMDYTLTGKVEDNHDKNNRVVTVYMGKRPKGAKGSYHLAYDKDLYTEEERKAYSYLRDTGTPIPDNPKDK

[9] = microbe, parasite or virus in culture; type: functional; conditions: Mycobacterium tuberculosis
Streptococcus = assay: Group A Streptococcus viability loss, dose response, counter-screen for streptokinase expression inhibitor project, luminescence, BacTiterGlo (AID 1915); type: functional, organism-based;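 further: potency for reduction of bacterial viability or growth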
[10] = THP-1 cell cytotoxicity, dose response, cytotoxicity control for non-replicating M. tuberculosis project (AID 489025); type: functional
[11] = HepG2 cell cytotoxicity, dose response, cytotoxicity control for non-replicating M. tuberculosis project (AID 489018); type: functional; conditions: Mycobacterium tuberculosis
[12] = molecular target: C-C chemokine receptor type 6 (Homo sapiens, UniProt P51684); assay: CCR6 receptor antagonists, dose response, cell-based, luminescent beta-arrestin readout (AID 504728); type: functional
Beta-galactosidase = Beta-galactosidase (Escherichia coli, UniProt Q8VNN2); assay: beta-galactosidase enzyme inhibitors and activators, dose response, artefact control for CCR6 antagonist project, biochemical, E. coli enzyme, set 3 (AID 504712); type: functional
[13] = Vero E6 cell cytotoxicity, dose response, cytotoxicity control for non-replicating M. tuberculosis project, secondary assay (AID 492998); type: functional, VeroE6; conditions: Vero C1008
cells = type: functional
[14] = A Cell Based Secondary Assay to Explore Cytotoxicity in THP-1 Cells of Compounds that Modulate Mycobacterium tuberculosis in Media Containing Glycerol versus Media without Glycerol (2).; type: functional
[15] = Vero cell cytotoxicity, cytotoxicity control for M. tuberculosis inhibitor project, purified and synthesized samples, set 3 (AID 504684); type: functional
[16] = A Cell Based Secondary Assay to Explore Cytotoxicity in HepG2 Cells of Compounds that Modulate Mycobacterium tuberculosis in Media Containing Glycerol versus Media without Glycerol (2).; type: functional

Botulinum neurotoxin type A, sequence (P0DPI1 2-448 limits assumed): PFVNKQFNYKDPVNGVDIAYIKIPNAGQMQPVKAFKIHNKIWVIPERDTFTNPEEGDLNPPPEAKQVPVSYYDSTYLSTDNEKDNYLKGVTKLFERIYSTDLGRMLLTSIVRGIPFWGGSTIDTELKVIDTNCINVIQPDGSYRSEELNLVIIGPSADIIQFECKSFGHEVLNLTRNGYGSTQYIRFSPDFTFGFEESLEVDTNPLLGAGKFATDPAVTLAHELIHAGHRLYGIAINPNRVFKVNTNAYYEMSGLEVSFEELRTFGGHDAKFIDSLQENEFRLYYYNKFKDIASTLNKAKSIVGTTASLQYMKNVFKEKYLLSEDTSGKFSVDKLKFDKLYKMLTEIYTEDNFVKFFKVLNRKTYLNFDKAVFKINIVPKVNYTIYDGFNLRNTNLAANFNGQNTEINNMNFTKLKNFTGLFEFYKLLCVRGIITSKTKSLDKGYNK
Protein disulfide-isomerase, sequence (P07237 whole entry): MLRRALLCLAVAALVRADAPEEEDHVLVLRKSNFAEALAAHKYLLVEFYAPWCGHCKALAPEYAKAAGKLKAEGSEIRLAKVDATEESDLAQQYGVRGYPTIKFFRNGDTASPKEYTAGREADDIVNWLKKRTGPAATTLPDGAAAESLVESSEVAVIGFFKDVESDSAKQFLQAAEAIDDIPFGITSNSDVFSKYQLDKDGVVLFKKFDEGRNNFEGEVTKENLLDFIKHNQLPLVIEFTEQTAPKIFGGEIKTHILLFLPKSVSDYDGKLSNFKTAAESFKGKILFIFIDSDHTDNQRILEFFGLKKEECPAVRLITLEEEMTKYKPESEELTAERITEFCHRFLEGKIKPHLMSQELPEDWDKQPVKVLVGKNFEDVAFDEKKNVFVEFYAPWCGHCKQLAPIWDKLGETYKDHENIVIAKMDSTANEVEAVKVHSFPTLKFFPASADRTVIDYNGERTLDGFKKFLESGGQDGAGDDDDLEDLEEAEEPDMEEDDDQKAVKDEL
Cyclin-dependent kinase 5/CDK5 activator 1, sequence (Q00535 whole entry): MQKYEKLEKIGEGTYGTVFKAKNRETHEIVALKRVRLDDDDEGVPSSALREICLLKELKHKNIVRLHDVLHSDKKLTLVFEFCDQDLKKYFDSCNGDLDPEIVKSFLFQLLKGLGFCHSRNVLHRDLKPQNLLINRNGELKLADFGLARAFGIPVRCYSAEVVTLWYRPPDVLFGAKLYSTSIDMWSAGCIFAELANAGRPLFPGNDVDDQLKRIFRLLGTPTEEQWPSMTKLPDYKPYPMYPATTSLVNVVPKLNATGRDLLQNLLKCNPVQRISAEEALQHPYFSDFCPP
Cyclin-dependent kinase 5/CDK5 activator 1, sequence (Q15078 whole entry, further chain): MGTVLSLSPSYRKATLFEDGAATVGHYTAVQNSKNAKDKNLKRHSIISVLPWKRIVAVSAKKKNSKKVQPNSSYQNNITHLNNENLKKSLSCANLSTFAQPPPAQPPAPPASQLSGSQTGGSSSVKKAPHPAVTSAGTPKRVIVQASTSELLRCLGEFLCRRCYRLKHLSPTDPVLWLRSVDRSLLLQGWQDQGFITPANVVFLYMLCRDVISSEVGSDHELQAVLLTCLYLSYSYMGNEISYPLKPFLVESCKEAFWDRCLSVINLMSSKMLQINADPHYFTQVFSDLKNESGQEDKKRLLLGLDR
Glycogen synthase kinase-3 beta, sequence (P49841 whole entry): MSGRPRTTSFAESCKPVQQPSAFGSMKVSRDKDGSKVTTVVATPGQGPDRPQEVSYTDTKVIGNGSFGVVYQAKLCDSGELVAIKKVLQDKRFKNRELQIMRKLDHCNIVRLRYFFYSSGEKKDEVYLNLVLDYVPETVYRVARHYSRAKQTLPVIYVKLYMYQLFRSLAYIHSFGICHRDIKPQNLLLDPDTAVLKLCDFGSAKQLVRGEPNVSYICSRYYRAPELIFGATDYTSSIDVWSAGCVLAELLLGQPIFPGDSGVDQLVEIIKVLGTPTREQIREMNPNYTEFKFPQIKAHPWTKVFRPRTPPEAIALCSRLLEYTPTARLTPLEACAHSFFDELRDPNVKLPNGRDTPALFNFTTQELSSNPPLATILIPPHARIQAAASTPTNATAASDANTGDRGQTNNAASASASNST
Glycogen synthase kinase-3 alpha, sequence (P49840 whole entry): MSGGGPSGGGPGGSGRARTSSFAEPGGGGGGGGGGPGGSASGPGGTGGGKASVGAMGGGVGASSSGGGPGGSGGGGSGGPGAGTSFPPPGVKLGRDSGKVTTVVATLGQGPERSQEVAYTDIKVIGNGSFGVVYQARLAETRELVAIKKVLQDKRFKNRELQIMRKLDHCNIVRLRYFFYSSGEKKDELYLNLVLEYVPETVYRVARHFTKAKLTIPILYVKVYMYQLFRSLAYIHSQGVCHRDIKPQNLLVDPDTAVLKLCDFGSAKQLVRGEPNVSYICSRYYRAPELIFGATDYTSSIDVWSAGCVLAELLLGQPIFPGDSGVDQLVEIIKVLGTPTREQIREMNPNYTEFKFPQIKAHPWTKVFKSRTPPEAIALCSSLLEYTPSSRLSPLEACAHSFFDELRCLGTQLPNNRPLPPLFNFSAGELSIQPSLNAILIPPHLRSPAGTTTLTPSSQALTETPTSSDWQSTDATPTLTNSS
C-C chemokine receptor type 6, sequence (P51684 whole entry): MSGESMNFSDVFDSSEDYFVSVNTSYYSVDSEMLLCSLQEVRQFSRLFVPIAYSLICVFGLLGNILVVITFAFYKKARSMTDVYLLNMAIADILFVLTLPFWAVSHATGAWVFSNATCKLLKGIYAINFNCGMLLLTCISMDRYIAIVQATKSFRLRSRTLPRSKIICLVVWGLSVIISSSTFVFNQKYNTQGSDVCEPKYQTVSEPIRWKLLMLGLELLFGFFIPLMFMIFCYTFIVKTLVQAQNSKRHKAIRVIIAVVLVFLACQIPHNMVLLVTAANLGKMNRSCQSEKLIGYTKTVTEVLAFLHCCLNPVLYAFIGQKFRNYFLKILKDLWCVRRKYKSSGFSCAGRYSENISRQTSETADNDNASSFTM
Beta-galactosidase, sequence (Q8VNN2 whole entry): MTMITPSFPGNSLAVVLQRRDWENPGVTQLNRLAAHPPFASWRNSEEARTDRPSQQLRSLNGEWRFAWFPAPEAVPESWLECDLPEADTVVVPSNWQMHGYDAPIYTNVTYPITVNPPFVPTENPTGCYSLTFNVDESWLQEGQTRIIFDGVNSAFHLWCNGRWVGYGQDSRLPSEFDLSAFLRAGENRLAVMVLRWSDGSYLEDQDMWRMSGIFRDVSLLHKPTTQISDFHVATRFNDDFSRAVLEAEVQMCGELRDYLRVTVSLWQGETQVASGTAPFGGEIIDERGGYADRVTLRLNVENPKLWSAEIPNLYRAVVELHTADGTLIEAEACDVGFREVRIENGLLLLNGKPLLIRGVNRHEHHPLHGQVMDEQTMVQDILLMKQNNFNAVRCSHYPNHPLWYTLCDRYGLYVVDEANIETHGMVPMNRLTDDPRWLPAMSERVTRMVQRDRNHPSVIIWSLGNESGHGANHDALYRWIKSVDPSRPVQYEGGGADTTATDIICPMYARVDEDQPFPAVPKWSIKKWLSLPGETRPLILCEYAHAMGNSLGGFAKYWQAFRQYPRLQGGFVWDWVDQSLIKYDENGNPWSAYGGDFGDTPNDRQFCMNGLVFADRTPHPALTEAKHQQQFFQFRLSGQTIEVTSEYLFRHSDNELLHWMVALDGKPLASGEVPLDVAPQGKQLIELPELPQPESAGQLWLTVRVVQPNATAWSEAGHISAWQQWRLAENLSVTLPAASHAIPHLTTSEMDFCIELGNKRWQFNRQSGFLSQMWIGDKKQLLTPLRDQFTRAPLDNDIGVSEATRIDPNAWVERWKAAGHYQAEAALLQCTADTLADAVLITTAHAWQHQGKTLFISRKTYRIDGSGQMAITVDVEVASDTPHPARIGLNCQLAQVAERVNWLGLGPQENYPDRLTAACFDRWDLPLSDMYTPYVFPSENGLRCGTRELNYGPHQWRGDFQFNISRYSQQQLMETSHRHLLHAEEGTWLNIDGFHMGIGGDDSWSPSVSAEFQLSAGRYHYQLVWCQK

Cc1noc(C)c1S(=O)(=O)Nc1ccc2c(c1)CC(=O)N([C@H](C)CO)C[C@H](C)[C@@H](CN(C)S(=O)(=O)c1ccc(F)cc1)O2
AC50 [1]: 19.5 µM (active)

CCCN(CCC)Cc1c(C(=O)N/N=C/c2ccoc2)nnn1-c1nonc1N
AC50 [2]: 1.24 µM (active)
AC50 [3]: 0.457 µM (active)
AC50 [4]: 40.6 µM (active)

COc1ccc(C2CC(c3cccs3)=NN2c2nc(C)c(C(C)=O)s2)cc1OC (stereo not given)
EC50 [5]: 111 µM (active)
EC50 [6]: 7.9 µM (active) and 4.8 µM (active)

Cn1cc(C(CC(=O)c2ccc(C(C)(C)C)cc2)C(=O)O)c2ccccc21 (stereo not given)
IC50 [7]: 90.5 µM (active)

Cc1nn2c(NCc3ccccn3)cc(C(C)C)nc2c1-c1ccccc1
EC50 [8]: 5.57 µM (active)
EC50 (Streptokinase A): 6.95 µM (active)
CC50 [9]: 24.5 µM (active)
EC50 (Streptococcus): 23.2 µM (active)
CC50 [10]: 9.09 µM (active)
CC50 [11]: 6.6 µM (active)
IC50 [12]: > 66.6 µM (inactive)
IC50 (Beta-galactosidase): > 66.6 µM (inactive)
CC50 [13]: 15.8 µM (active)
IC50 (cells): 1.51 µM (active)
CC50 [14]: 4.39 µM (active)
CC50 [15]: 11.1 µM (active)
CC50 [16]: 0.46 µM (active)
